Experimental data from ChEMBL document CHEMBL1201862, “PubChem BioAssay data set” (2004).
The source made the active and inactive calls. Cut-off read from the data, not from the text of the source: actives have a measured IC50 and inactives only a lower limit.

Molecular target: Envelope glycoprotein gp160 (Human immunodeficiency virus 1, UniProt Q6QLK5)
Test: inhibitors of HIV fusion peptide binding, primary screen, biochemical, uHTS, fluorescence dequenching (AID 1986)

Chain of Envelope glycoprotein gp160 (Q6QLK5 whole entry, the tested form may be a part): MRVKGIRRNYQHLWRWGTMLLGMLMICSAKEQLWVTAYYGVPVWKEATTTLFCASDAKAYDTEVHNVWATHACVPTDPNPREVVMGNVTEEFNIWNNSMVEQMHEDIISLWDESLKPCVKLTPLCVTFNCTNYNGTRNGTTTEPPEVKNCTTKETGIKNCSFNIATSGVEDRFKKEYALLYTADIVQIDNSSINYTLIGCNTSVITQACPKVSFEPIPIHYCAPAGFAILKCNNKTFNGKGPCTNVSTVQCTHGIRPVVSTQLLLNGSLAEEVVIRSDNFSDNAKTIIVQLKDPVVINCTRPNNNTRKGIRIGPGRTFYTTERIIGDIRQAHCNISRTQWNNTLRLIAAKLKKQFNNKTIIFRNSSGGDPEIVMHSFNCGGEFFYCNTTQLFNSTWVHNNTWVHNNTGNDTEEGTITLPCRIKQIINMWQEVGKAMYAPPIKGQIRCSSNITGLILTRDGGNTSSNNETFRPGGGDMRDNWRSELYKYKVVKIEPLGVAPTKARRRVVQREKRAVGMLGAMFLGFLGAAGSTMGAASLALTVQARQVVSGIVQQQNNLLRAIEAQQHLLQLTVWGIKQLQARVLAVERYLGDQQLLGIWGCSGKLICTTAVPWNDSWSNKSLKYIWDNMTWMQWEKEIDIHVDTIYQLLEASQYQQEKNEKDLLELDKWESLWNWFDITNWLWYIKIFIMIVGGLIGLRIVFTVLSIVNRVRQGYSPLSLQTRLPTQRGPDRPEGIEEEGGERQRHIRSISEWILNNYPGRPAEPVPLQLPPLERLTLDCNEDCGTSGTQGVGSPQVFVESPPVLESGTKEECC

SMILES | IC50
COc1cc(/C=C2\SC(NS(=O)(=O)c3ccc(C)cc3)=NC2=O)c([N+](=O)[O-])cc1OC | 17.1 µM (active)
O=C(O)CCn1cc(/C=C/C(=O)c2ccc(Cl)cc2)c(-c2cccc(Br)c2)n1 | 28 µM (active)
